ChEMBL document CHEMBL1156187, “Discovery of a selective small-molecule melanocortin-4 receptor agonist with efficacy in a pilot study of sexual dysfunction in humans” (J Med Chem, 2010)

What was measured:
[1] = target: T1, Melanocyte-stimulating hormone receptor (Homo sapiens, UniProt Q01726); experiment: Agonist activity at human recombinant MC1 receptor expressed in HEK293 cells assessed as cAMP accumulation by enzyme fragment complementation assay; type: functional, cell-based
Target sequence in this assay (Q01726 whole entry, the tested form may be a part): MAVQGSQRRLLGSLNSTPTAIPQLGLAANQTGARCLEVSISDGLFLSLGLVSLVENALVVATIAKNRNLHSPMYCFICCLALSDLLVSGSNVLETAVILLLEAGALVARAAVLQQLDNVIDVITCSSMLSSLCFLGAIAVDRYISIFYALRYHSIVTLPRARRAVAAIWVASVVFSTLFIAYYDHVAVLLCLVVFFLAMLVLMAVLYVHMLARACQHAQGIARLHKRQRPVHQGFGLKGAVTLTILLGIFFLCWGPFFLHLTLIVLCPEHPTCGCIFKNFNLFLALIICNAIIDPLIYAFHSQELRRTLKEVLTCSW

Melanocortin receptor 5 [2] = target: T2, Melanocortin receptor 5 (Homo sapiens, UniProt P33032); experiment: Agonist activity at human recombinant MC5 receptor expressed in HEK293 cells assessed as cAMP accumulation by beta lactamase reporter gene assay; type: functional, cell-based
Melanocortin receptor 3 [3] = target: T3, Melanocortin receptor 3 (Homo sapiens, UniProt P41968); experiment: Agonist activity at human recombinant MC3 receptor expressed in CHO cells assessed as cAMP accumulation by enzyme fragment complementation assay; type: functional, cell-based
Melanocortin receptor 3 [4] = target: T3, Melanocortin receptor 3; experiment: Agonist activity at human recombinant MC3 receptor expressed in CHO cells assessed as cAMP accumulation by enzyme fragment complementation assay relative to […]; type: functional, cell-based
[5] = target: Voltage-gated inwardly rectifying potassium channel KCNH2 (Homo sapiens, UniProt Q12809); experiment: Displacement of [3H]dofetilide from human ERG expressed in CHO cells by patch clamp method
Melanocortin receptor 4 [6] = target: T4, Melanocortin receptor 4 (Homo sapiens, UniProt P32245); experiment: Agonist activity at human recombinant MC4 receptor expressed in CHO cells by cAMP responsive beta lactamase reporter gene assay; type: functional, cell-based
Melanocortin receptor 4 [7] = target: T4, Melanocortin receptor 4; experiment: Displacement of [125I]-MT-II from human recombinant MC4 receptor expressed in CHO cells by scintillation counting
[8] = Intrinsic clearance in human liver microsome measured per mg of protein; type: ADME; details: liver microsomes
[9] = Lipophilicity, log D at pH 7.4; type: physicochemical; details: buffer
Melanocortin receptor 5 [10] = target: T2, Melanocortin receptor 5; experiment: Agonist activity at human recombinant MC5 receptor expressed in HEK293 cells assessed as cAMP accumulation by beta lactamase reporter gene assay relative to alpha melanocyte-stimulating hormone; type: functional, cell-based
[11] = target: T1, Melanocyte-stimulating hormone receptor; experiment: Agonist activity at human recombinant MC1 receptor expressed in HEK293 cells assessed as cAMP accumulation by enzyme fragment complementation assay relative to alpha melanocyte-stimulating hormone; type: functional, cell-based
Target sequence in this assay (Q01726 whole entry, looked up, the tested form may be a part): as the sequence (Q01726 whole entry, the tested form may be a part) above

T3 sequence (P41968 whole entry, the tested form may be a part): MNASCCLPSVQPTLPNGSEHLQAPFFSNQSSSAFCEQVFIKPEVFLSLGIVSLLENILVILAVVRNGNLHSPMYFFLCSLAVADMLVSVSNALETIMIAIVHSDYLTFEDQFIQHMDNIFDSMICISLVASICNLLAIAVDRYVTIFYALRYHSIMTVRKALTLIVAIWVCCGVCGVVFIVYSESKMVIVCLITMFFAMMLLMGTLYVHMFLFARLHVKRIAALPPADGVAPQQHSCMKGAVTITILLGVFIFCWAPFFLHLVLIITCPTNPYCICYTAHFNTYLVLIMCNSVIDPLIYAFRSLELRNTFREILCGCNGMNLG
Voltage-gated inwardly rectifying potassium channel KCNH2, sequence (Q12809 whole entry): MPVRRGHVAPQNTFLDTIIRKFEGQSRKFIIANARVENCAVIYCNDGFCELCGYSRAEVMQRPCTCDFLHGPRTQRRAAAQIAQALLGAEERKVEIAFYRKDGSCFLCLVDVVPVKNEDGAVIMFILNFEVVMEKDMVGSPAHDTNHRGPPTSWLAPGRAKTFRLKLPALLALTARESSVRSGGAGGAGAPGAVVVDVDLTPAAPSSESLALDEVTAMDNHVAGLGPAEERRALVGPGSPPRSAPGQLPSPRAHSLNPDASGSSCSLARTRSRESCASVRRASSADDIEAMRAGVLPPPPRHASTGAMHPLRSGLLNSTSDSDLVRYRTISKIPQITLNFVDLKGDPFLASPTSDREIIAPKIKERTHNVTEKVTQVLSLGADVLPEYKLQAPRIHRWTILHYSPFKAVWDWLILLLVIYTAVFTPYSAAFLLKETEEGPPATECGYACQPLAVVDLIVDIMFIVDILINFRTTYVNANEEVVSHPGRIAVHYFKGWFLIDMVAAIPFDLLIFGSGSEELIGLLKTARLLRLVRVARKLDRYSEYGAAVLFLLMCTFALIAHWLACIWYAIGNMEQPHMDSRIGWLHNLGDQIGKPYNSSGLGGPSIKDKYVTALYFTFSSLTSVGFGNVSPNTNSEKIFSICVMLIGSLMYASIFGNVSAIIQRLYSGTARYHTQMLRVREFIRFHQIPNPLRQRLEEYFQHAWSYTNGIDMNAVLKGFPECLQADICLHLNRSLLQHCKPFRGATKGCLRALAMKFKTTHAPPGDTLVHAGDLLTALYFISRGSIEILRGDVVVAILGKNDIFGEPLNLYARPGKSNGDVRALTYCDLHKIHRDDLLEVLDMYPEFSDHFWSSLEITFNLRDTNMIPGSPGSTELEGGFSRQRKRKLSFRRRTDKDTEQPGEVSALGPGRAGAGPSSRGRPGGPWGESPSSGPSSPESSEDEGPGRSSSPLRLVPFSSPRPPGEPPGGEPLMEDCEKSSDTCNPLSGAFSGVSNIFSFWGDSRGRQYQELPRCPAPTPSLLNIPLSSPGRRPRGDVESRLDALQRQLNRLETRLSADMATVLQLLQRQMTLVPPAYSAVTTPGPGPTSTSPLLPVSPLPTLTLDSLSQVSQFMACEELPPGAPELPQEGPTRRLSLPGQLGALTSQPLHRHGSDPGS
T4 sequence (P32245 whole entry): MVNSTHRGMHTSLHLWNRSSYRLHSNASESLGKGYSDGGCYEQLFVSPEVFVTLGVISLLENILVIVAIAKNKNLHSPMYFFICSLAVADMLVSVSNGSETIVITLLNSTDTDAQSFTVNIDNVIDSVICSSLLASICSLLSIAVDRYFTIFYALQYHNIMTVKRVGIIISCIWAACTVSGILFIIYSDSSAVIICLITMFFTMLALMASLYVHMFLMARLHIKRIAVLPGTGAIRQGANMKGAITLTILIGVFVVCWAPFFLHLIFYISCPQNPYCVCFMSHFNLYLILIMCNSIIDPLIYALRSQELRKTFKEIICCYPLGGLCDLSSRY
T2 sequence (P33032 whole entry, the tested form may be a part): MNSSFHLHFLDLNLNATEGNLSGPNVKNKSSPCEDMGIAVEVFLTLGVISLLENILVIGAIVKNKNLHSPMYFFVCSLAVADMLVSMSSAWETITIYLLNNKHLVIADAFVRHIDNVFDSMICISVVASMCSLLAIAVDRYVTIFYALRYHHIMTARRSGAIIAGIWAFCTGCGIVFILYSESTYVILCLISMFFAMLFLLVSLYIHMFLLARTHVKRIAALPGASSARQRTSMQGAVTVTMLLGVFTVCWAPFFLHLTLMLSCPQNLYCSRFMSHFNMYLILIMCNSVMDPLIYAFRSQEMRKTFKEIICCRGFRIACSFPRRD

EC50 [1] [nM] | EC50 (Melanocortin receptor 5 [2]) [nM] | EC50 (Melanocortin receptor 3 [3]) [nM] | Emax (Melanocortin receptor 3 [4]) [%] | EC50 (Melanocortin receptor 4 [6]) [nM] | Ki (Melanocortin receptor 4 [7]) [nM] | microsomal CLint [8] [µL/min/mg] | logD [9] | Emax (Melanocortin receptor 5 [10]) [%] | Emax [11] [%] | SMILES | Ki [5] [nM]
> 5010 | > 5810 | 4570 | 76 | 45 | 99 | – | – | – | – | C[C@@H]1CN(C(=O)[C@@H]2CN(C(C)(C)C)C[C@H]2c2ccc(F)cc2F)C[C@H](C)[C@@]1(O)c1c(F)cccc1F | 5000
> 8220 | – | 65 | 90 | 5 | 50 | – | – | – | – | C[C@@H]1CN(C(=O)[C@H]2CN(c3cccnc3)C[C@@H]2c2ccc(F)cc2F)C[C@H](C)[C@@]1(O)c1ccccc1 | 5070
> 11900 | > 20000 | > 14500 | – | 18 | 36 | 151 | 3.1 | – | – | C[C@@H]1CN(C(=O)[C@H]2CN(C3CCOCC3)C[C@@H]2c2ccc(F)cc2F)C[C@H](C)[C@@]1(O)c1ccccc1 | > 5270
> 4910 | – | > 33300 | – | 55 | 290 | 342 | > 4 | – | – | C[C@@H]1CN(C(=O)[C@H]2CN(C3CC3)C[C@@H]2c2ccc(F)cc2F)C[C@H](C)[C@@]1(O)c1ccccc1 | > 9170
> 5880 | 5190 | 3680 | 75 | 30 | 48 | 16 | 3.9 | 107 | – | C[C@@H]1CN(C(=O)[C@@H]2CN(C(C)(C)C)C[C@H]2c2ccc(F)cc2F)C[C@H](C)[C@@]1(O)c1ccc(Cl)cc1 | > 10000
1170 | – | > 33300 | – | 46 | 350 | – | – | 100 | 97 | C[C@@H]1CN(C(=O)[C@@H]2CN(C(C)(C)C)C[C@H]2c2ccc(F)cc2F)C[C@H](C)[C@@]1(O)c1ccccn1 | 5840
